Two compounds from ChEMBL document CHEMBL1148587, “Imidazo[1,2-a]pyrimidines as functionally selective and orally bioavailable GABA(A)alpha2/alpha3 binding site agonists for the treatment of anxiety disorders” (J Med Chem, 2006) can be followed below.

Data set [1] has as its target GABA-A receptor; anion channel. In words: (§1) Displacement of [3H]Ro-151788 from central benzodiazepine binding site in rat administered po. Format: functional.
For data set [2], the target named is GABA-A receptor; anion channel (Rattus norvegicus) (UniProt O09028+P15431+P18506+P18508+P19969+P20236+P23574+P23576+P28471+P28473+P30191+P62813+P63079+P63138+Q91ZM7+Q9ES14). The description is as §1. Format: functional.
Data set [3] can be described thus: Plasma clearance in rhesus monkey. The class given is ADME, organism-based, Macaca mulatta.
Data set [4] deals with Rattus norvegicus. Briefly: Activity in rat elevated plus maze assay at 1 mg/kg, po. Also on record: dose 1 mg/kg. Format: functional, organism-based.
A short description of data set [5]: Oral bioavailability in rat. Format: ADME, organism-based. To be noted: in vivo.
The target of data set [6] is T1, GABA-A receptor; alpha-5/beta-3/gamma-2 (Homo sapiens, UniProt P18507+P28472+P31644).
T1 sequence (P18507 whole entry): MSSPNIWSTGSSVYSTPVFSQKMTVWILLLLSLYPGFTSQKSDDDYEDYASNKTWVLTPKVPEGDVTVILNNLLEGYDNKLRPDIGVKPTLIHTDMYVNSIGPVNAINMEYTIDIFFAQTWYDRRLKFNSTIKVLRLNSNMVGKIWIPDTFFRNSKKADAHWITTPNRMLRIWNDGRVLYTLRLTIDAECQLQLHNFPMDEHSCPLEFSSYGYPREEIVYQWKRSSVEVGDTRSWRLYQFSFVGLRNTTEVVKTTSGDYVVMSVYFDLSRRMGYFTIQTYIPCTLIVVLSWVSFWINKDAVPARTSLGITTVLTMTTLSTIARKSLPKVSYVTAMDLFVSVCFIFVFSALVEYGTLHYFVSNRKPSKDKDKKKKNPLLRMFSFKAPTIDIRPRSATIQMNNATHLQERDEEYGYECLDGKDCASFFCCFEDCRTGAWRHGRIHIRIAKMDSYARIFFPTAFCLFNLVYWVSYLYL
T1 sequence (P28472 whole entry): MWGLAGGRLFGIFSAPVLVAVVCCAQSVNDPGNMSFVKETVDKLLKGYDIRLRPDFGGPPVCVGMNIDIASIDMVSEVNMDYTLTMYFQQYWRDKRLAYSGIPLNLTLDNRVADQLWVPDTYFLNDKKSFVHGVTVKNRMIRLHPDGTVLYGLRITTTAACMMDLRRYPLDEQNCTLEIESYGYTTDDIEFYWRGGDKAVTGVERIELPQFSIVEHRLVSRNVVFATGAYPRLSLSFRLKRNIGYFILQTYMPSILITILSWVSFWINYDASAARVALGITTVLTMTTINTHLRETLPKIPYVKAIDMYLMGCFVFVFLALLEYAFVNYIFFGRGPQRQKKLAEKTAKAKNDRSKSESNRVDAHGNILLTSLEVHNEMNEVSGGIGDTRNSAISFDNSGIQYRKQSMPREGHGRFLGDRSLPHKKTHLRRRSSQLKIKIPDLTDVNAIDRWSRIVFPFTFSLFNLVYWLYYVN
T1 sequence (P31644 whole entry): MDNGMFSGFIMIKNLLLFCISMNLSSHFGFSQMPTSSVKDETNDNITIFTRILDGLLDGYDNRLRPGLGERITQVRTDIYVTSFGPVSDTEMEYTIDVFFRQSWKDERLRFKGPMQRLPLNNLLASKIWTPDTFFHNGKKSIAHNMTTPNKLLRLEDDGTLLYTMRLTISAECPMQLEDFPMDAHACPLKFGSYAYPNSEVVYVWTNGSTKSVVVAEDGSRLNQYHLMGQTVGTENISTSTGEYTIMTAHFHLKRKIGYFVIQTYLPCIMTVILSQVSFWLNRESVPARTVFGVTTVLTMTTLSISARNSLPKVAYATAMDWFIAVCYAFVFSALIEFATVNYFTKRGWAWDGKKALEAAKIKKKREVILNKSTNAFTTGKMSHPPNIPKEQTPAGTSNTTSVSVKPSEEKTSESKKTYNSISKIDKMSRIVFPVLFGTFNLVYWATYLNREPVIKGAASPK
In words: Displacement of [3H]Ro-151788 from human recombinant GABAA alpha5 in combination with beta3gamma2 expressed in L(tk-) cells. The class given is cell-based. (In general: Displacement assays read how much labelled ligand stays bound in the presence of the test substance.)

The target in data set [7] is T2, GABA-A receptor; alpha-1/beta-3/gamma-2 (Homo sapiens) (UniProt P14867+P18507+P28472). In words: Efficacy against human recombinant GABAA alpha-1 in combination with beta3gamma2 expressed in L(tk-) cells by whole cell patch clamp method. The class given is functional, cell-based. A general note: In patch-clamp work, channel activity is measured electrically.
A short description of data set [8]: Oral bioavailability in rhesus monkey. Format: ADME, organism-based, Macaca mulatta. To be noted: in vivo.
Data set [9] is described as follows: Plasma clearance in rat. Format: ADME, organism-based.
Data set [10] is described as follows: Half life in rhesus monkey. The conditions noted are these: in vivo. Format: ADME, organism-based, Macaca mulatta.
The target of data set [11] is GABA-A receptor; alpha-5/beta-3/gamma-2 (Homo sapiens) (UniProt P18507+P28472+P31644). In words: Efficacy against human recombinant GABAA alpha-5-beta-3-gamma-2 expressed in L(tk-) cells by whole cell patch clamp method relative to chlordiazepoxide. The class given is functional, cell-based.
In data set [12] the target is GABA-A receptor; alpha-3/beta-3/gamma-2 (Homo sapiens) (UniProt P18507+P28472+P34903). In words: Efficacy against human recombinant GABAA alpha-3-beta-3-gamma-2 expressed in L(tk-) cells by whole cell patch clamp method relative to chlordiazepoxide. The class given is functional, cell-based.
Data set [13] deals with Rattus norvegicus. In words: Activity in rat elevated plus maze assay at 3 mg/kg, po. Format: functional, organism-based. Further details: dose 3 mg/kg.
The target of data set [14] is T3, GABA-A receptor; alpha-2/beta-3/gamma-2 (Homo sapiens) (UniProt P18507+P28472+P47869). Briefly: Efficacy against human recombinant GABAA alpha-2-beta-3-gamma-2 expressed in L(tk-) cells by whole cell patch clamp method. The class given is cell-based.
The target in data set [15] is T2, GABA-A receptor; alpha-1/beta-3/gamma-2 (Homo sapiens). Briefly: Efficacy against human recombinant GABAA alpha-1-beta-3-gamma-2 expressed in L(tk-) cells by whole cell patch clamp method relative to chlordiazepoxide. Format: functional, cell-based.
Data set [16] concerns the target T3, GABA-A receptor; alpha-2/beta-3/gamma-2 (Homo sapiens). Briefly: Efficacy against human recombinant GABAA alpha-2-beta-3-gamma-2 expressed in L(tk-) cells by whole cell patch clamp method relative to chlordiazepoxide. Format: functional, cell-based.

Activity calls are given as the source filed them. The rule behind the calls is not given here.

What is called EC50 is the concentration needed to bring the measured effect to its halfway point. A word on the clearance: it is the rate of elimination divided by the concentration. The term bioavailability denotes dose-corrected exposure relative to a reference, in per cent. For orientation: Ki means the equilibrium dissociation constant of an inhibitor or competing ligand from its target. By half-life is commonly meant how long it takes for the measured level to halve. On to `N#Cc1cc(F)ccc1-c1cc(-c2cnc3nc(C(F)(F)F)ccn23)ccc1F`, for which a half-maximal response in data set [1] (EC50) required 19 nM. This compound registered an ID50 in [2] of 0.27 mg/kg. For the same compound, the clearance in [3] came out at 0.18 L/h/kg; in [9] it was 0.618 L/h/kg. Further, in data set [4], the result was Active. For the same compound, the bioavailability in [5] turned out to be 53%; in data set [8], 49%. In data set [6], the Ki was determined as 0.5 nM. Besides, in data set [7], the Efficacy was -2%. In data set [10], this compound showed a half-life of 13.4 h.
As for `CC(C)(O)c1ccn2c(-c3ccc(F)c(-c4cccnc4)c3)cnc2n1`, the response in data set [1] was half-maximal at 580 nM (EC50). Moreover, the ID50 in [2] worked out at 0.84 mg/kg. Moreover, the Efficacy is 18% in [11]; 54% in [12]; 6.2% in [7]; 48% in [14]; 5% in data set [15]; 39% in data set [16]. The same compound showed a bioavailability in data set [5] of 77%. Besides, the Ki in [6] was found to be 0.53 nM. For the same compound, the outcome in data set [13] was Active. Further, the clearance in data set [9] amounted to 0.546 L/h/kg.
